In assay [1] the test system is exosomal miRNAs. Put plainly: Serum exosomal miRNA expression after irradiation. In kind it is in vivo, mice. The following applies: 30 days after IR; SP-treated vs vehicle-treated. The protocol: Blood was collected by cardiac puncture using EDTA vials. Blood samples were centrifuged 3,000×g for 25 minutes, and plasma fraction was aliquoted and saved in a vapor phase of liquid nitrogen. Exosomes were isolated from the plasma of mice at the time points shown in FIGS. 6A-6C using an Exosome isolation kit from 101Bio. Exosome concentrations were quantified by EXOCET Exosome Quantitation Kit (System Biosciences). Equal exosome number from 5 animals were combined for each time point, and total exosomal RNA was extracted by using miRNeasy Micro Kit (QIAGEN). For the miRNAs expression profiling the miRCURY LNA™ Universal RT microRNA PCR assay (QIAGEN) and ExiLENT SYBR® Green Maser Mix (QIAGEN) were used. The initial estimation of exosomal miRNAs expression was performed by using Serum/Plasma LNA™ miRNA PCR Panel (Cat. #YAHS-106Y. QIAGEN) on the QuantStudio 5 RT-PCR machine (Applied Biosystems).
The first group included let-7a-5p, miR-1, miR-106b-3p, miR-106b-5p, miR-126-3p, miR-181a-5p, miR-335-3p, and miR-335-5p. […] The second group included let-7g-5p, let-7i-5p, and miR-16-5p. There were no significant differences between males and females both in terms of exosomal miRNA expression altered by IR or the effects of sepiapterin on miRNA expression.

Assay [2] deals with plasma IL-6, fibrinogen, neutrophil elastase, C-reactive protein. Put plainly: Plasma ELISA of IL-6, fibrinogen, neutrophil elastase, C-reactive protein after irradiation. In kind it is in vivo, mice. Here is the method:
At the time of sacrifice, blood was obtained by heart puncture into EDTA containing tubes and centrifuged at 3000 rpm for 25 mins to isolate the plasma. The following ELISA plates from Abcam were used for analysis: fibrinogen (ab213478), neutrophil elastase (ab252356), C-reactive protein (ab157712) and IL-6 (ab100713). Plasma samples were processed and ELISA kits were run according to manufacturer recommendations. All cytokines were reported with an absolute unit. Key molecular players of the coagulation cascade like tissue factor, thrombin, and fibrinogen are epidemiologically and mechanistically linked with an inflammatory component. Genetic and pharmacologic studies have unraveled pivotal roles for fibrinogen in determining the extent of local or systemic inflammation. Neutrophil elastase, a serine protease present in the azurophil granules of neutrophils, is released in an inflammatory state and disintegrates extracellular matrices due to its low substrate specificity, resulting in tissue injury. Neutrophil elastase is one of the most destructive enzymes in the body. Once unregulated, this enzyme disturbs the function of the lung permeability barrier and induces the release of pro-inflammatory cytokines with stimulation of acute lung injury. […] High levels of IL-6 in blood plasma may exacerbate the inflammatory response in the lung tissue, which ultimately causes IL-6 leakage to bronchoalveolae and further lung damage. High levels of IL-6 in the lung tissue may attract more inflammatory cells such as neutrophils, monocytes, macrophages to the injured local lung which ultimately causes serious damage to the lung and leads to chronic fibrosis. An acute raise of IL-6 in plasma can lead to increases in C Reactive Protein (CRP). C Reactive Protein (CRP) is produced by the liver and is a biomarker for general stress response to inflammation or infectious agents. It was shown that serum CRP level may be an effective indicator for predicting the occurrence of radiation pneumonitis and valuable factor for evaluating radiation-induced lung-injury extent.

Consider `C[C@H](O)C(=O)C1=Nc2c([nH]c(N)nc2=O)NC1` [SP, Sepiapterin], for which the “exosomal expression of let-7a-5p, miR-1, miR-106b-3p, miR-106b-5p, miR-126-3p, miR-181a-5p, miR-335-3p, miR-335-5p” value in assay [1] is given as “significantly lower in vehicle-treated animals comparing with SP-treated animals”. The “exosomal expression of let-7g-5p, let-7i-5p, miR-16-5p” value in assay [1] is “significantly higher in vehicle-treated animals comparing with SP-treated animals”. In addition, the “plasma level of IL-6” value was 97.00 ± 45.71 pg/mL in assay [2] (4 days after IR, vehicle 304.05±153.23); 49.85 ± 39.36 pg/mL in assay [2] (8 days after IR, vehicle 606.09±72.72); 40.06 ± 43.26 pg/mL in assay [2] (180 days after IR, vehicle 197.22±55.55). Besides, the “plasma level of fibrinogen” value in assay [2] (8 days after IR, vehicle 948.77±98.54) was 332.38 ± 109.02 µg/mL. For the same compound, the “plasma level of neutrophil elastase” value in assay [2] (180 days after IR, vehicle 25.21±6.54) was 12.15 ± 2.87 ng/mL. The “plasma C reactive protein” value in assay [2] (any time-point after IR, SP vs vehicle) is “did not demonstrate significant difference”.

(Values after patent US12667569B2, “Use of sepiapterin and metabolites thereof to treat radiation exposure” (PTC Therapeutics MP, Inc., priority 2019, dated 2026).)
